Laboratory results reported in ChEMBL document CHEMBL1201862, “PubChem BioAssay data set” (2004).
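Protocol summary: plate cells (96-well), add compound at 5 concentrations, incubate 48 h, interpolate endpoints linearly. The concentration for 50% growth inhibition is given as GI50.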 Active and inactive are the calls of the source. Cut-off read from the data, not from the text of the source: active = GI50 up to about 1.1 µM and inactive = higher.

How the values were obtained:
Assay in all cases: NCI-60 cell line screen, 48 h
A549 = tested on: A549
ACHN = tested on: ACHN
CCRF-CEM = tested on: CCRF-CEM
COLO 205 = tested on: COLO 205
HCC 2998 = tested on: HCC 2998
HCT-116 = tested on: HCT-116
HCT-15 = tested on: HCT-15
HL-60 = tested on: HL-60
HOP-92 = tested on: HOP-92
Hs-578T = tested on: Hs-578T
NCI-H226 = tested on: NCI-H226
NCI-H460 = tested on: NCI-H460
RPMI-8226 = tested on: RPMI-8226
SF-295 = tested on: SF-295
SK-MEL-28 = tested on: SK-MEL-28
SN12C = tested on: SN12C
T47D = tested on: T47D
U-251 = tested on: U-251
UACC-257 = tested on: UACC-257
UO-31 = tested on: UO-31

| Structure (SMILES) | GI50 (A549) | GI50 (ACHN) | GI50 (CCRF-CEM) | GI50 (COLO 205) | GI50 (HCC 2998) | GI50 (HCT-116) | GI50 (HCT-15) [µM] | GI50 (HL-60) | GI50 (HOP-92) | GI50 (Hs-578T) | GI50 (NCI-H226) | GI50 (NCI-H460) | GI50 (RPMI-8226) | GI50 (SF-295) | GI50 (SK-MEL-28) | GI50 (SN12C) | GI50 (T47D) | GI50 (U-251) | GI50 (UACC-257) | GI50 (UO-31) |
| --- | --- | --- | --- | --- | --- | --- | --- | --- | --- | --- | --- | --- | --- | --- | --- | --- | --- | --- | --- | --- |
| c1ccc2cc(-c3cc(-c4cc(-c5ccc6ccccc6c5)on4)no3)ccc2c1 | > 100 µM (inactive) | > 100 µM (inactive) | 13.6 µM (inactive) | > 100 µM (inactive) | 99.1 µM (inactive) | > 100 µM (inactive) | > 100 | > 100 µM (inactive) | > 100 µM (inactive) | 53.6 µM (inactive) | > 100 µM (inactive) | > 100 µM (inactive) | > 100 µM (inactive) | > 100 µM (inactive) | > 100 µM (inactive) | > 100 µM (inactive) | > 100 µM (inactive) | > 100 µM (inactive) | > 100 µM (inactive) | 96.8 µM (inactive) |
| COc1ccc2[nH]c3c4c(ccc3c2c1)C(=O)C=CC4=O | 28.6 µM (inactive) | 4.76 µM (inactive) | 0.324 µM (active) | 5.3 µM (inactive) | 22.5 µM (inactive) | 3.62 µM (inactive) | 4.42 | 0.439 µM (active) | 3.34 µM (inactive) | 24.3 µM (inactive) | 21.6 µM (inactive) | 24.8 µM (inactive) | 2.08 µM (inactive) | 24.7 µM (inactive) | 8.2 µM (inactive) | 11 µM (inactive) | 2.64 µM (inactive) | 17.1 µM (inactive) | 10 µM (inactive) | 14.8 µM (inactive) |
| CCOc1cc2c(cc1O)/C(=N\N)C[C@@H]1[C@@H]2CC[C@]2(C)[C@@H](O)CC[C@@H]12 | 8.75 µM (inactive) | 5.61 µM (inactive) | 2.38 µM (inactive) | 27.4 µM (inactive) | 2.07 µM (inactive) | 2.34 µM (inactive) | 1.31 | 0.337 µM (active) | 13.2 µM (inactive) | 3.06 µM (inactive) | 4.76 µM (inactive) | 2.99 µM (inactive) | 4.48 µM (inactive) | 0.397 µM (active) | 5.66 µM (inactive) | 9.12 µM (inactive) | 8.32 µM (inactive) | 3.78 µM (inactive) | 7.43 µM (inactive) | 3.96 µM (inactive) |
| Nc1ccc(S(=O)(=O)Nc2nc3ccccc3nc2N2CCCCCC2)cc1 | 27.7 µM (inactive) | 35.9 µM (inactive) | 33.5 µM (inactive) | 16.6 µM (inactive) | 16.6 µM (inactive) | 16.6 µM (inactive) | 23.9 | 19.1 µM (inactive) | 23.4 µM (inactive) | 37.2 µM (inactive) | 34.7 µM (inactive) | 23.4 µM (inactive) | 14.6 µM (inactive) | 22.9 µM (inactive) | 18.5 µM (inactive) | 11 µM (inactive) | 22.9 µM (inactive) | 20.2 µM (inactive) | 32.9 µM (inactive) | 13.2 µM (inactive) |
| CCOC(=O)n1c2ccccc2c2c(O)c(OC)c3c(c21)C(=O)NC3=O | 38.5 µM (inactive) | 19.8 µM (inactive) | 13.1 µM (inactive) | 21.4 µM (inactive) | 12.2 µM (inactive) | 20.1 µM (inactive) | 17.3 | 20.7 µM (inactive) | 76 µM (inactive) | 59.4 µM (inactive) | 7.59 µM (inactive) | 13.9 µM (inactive) | 58.5 µM (inactive) | 75.3 µM (inactive) | > 100 µM (inactive) | 83.6 µM (inactive) | 95.1 µM (inactive) | 32 µM (inactive) | 45.8 µM (inactive) | 33.1 µM (inactive) |
| CCOc1c(OC)cc(CNNc2nccs2)cc1OC | 60 µM (inactive) | > 100 µM (inactive) | > 100 µM (inactive) | 51.4 µM (inactive) | > 100 µM (inactive) | > 100 µM (inactive) | 28 | 13.4 µM (inactive) | 67.6 µM (inactive) | > 100 µM (inactive) | > 100 µM (inactive) | 27 µM (inactive) | 7.03 µM (inactive) | > 100 µM (inactive) | > 100 µM (inactive) | > 100 µM (inactive) | 11.7 µM (inactive) | 32.7 µM (inactive) | 20.1 µM (inactive) | 71.9 µM (inactive) |
| Cc1cccc(C)c1NC(=O)/C(Cc1nc2ccc([N+](=O)[O-])cc2nc1O)=N\NC(N)=O | > 100 µM (inactive) | 94 µM (inactive) | 19.6 µM (inactive) | 38.9 µM (inactive) | > 100 µM (inactive) | 83.2 µM (inactive) | > 100 | 32.5 µM (inactive) | 57.8 µM (inactive) | > 100 µM (inactive) | > 100 µM (inactive) | > 100 µM (inactive) | 37.9 µM (inactive) | > 100 µM (inactive) | > 100 µM (inactive) | > 100 µM (inactive) | > 100 µM (inactive) | > 100 µM (inactive) | > 100 µM (inactive) | 45.3 µM (inactive) |
| C/C(=N\Nc1ccccc1)C(CN(C)C)C(c1ccccc1)c1c(O)c2ccccc2oc1=O (stereo not given) | > 100 µM (inactive) | > 100 µM (inactive) | > 83.8 µM (inactive) | > 68.9 µM (inactive) | > 100 µM (inactive) | > 100 µM (inactive) | > 100 | > 59.8 µM (inactive) | > 35.2 µM (inactive) | > 100 µM (inactive) | > 100 µM (inactive) | > 100 µM (inactive) | > 66.7 µM (inactive) | > 100 µM (inactive) | > 100 µM (inactive) | > 100 µM (inactive) | 89.3 µM (inactive) | > 100 µM (inactive) | > 100 µM (inactive) | > 100 µM (inactive) |
| N#Cc1cnn2ccn(C3OC(COC(=O)c4ccccc4)C(OC(=O)c4ccccc4)C3OC(=O)c3ccccc3)c12 (stereo not given) | > 21.5 µM (inactive) | > 21.5 µM (inactive) | > 21.5 µM (inactive) | > 21.5 µM (inactive) | > 21.5 µM (inactive) | > 21.5 µM (inactive) | > 21.5 | > 21.5 µM (inactive) | > 31.6 µM (inactive) | 13.2 µM (inactive) | > 21.5 µM (inactive) | > 21.5 µM (inactive) | > 21.5 µM (inactive) | > 21.5 µM (inactive) | > 21.5 µM (inactive) | > 21.5 µM (inactive) | 19.1 µM (inactive) | > 21.5 µM (inactive) | > 21.5 µM (inactive) | > 21.5 µM (inactive) |
| Cc1nccn1S(=O)(=O)c1ccc(Cl)cc1 | > 100 µM (inactive) | 95.9 µM (inactive) | 41 µM (inactive) | 19.8 µM (inactive) | 29.2 µM (inactive) | 30.5 µM (inactive) | 41.6 | 22.9 µM (inactive) | 16.9 µM (inactive) | 44.9 µM (inactive) | 74.8 µM (inactive) | 41.9 µM (inactive) | 48.6 µM (inactive) | 67.6 µM (inactive) | 94 µM (inactive) | 37.8 µM (inactive) | 38 µM (inactive) | 61.1 µM (inactive) | 42.5 µM (inactive) | 58.3 µM (inactive) |
| O=C(/C=C/NC(=O)OCc1ccccc1)OCc1ccccc1 | > 100 µM (inactive) | > 100 µM (inactive) | > 100 µM (inactive) | > 100 µM (inactive) | > 100 µM (inactive) | > 100 µM (inactive) | > 100 | > 100 µM (inactive) | 41.6 µM (inactive) | > 100 µM (inactive) | > 100 µM (inactive) | > 100 µM (inactive) | > 100 µM (inactive) | > 100 µM (inactive) | > 100 µM (inactive) | > 100 µM (inactive) | > 100 µM (inactive) | > 100 µM (inactive) | > 100 µM (inactive) | 32.5 µM (inactive) |
| Cn1cnc(N2CCCC2)c(C#N)c1=S | > 100 µM (inactive) | > 100 µM (inactive) | > 100 µM (inactive) | > 100 µM (inactive) | > 100 µM (inactive) | > 100 µM (inactive) | > 100 | > 100 µM (inactive) | 76.2 µM (inactive) | > 100 µM (inactive) | > 100 µM (inactive) | > 100 µM (inactive) | > 100 µM (inactive) | > 100 µM (inactive) | > 100 µM (inactive) | > 100 µM (inactive) | > 100 µM (inactive) | > 100 µM (inactive) | > 100 µM (inactive) | 23.2 µM (inactive) |
| CN(C)CCCNc1ccc2nnn3c4ccc([N+](=O)[O-])cc4c(=O)c1c23 | 0.721 µM (active) | 0.542 µM (active) | 0.785 µM (active) | 0.834 µM (active) | 2.23 µM (inactive) | 0.404 µM (active) | 0.916 | 1.83 µM (inactive) | 1.57 µM (inactive) | 3.81 µM (inactive) | 0.403 µM (active) | 0.313 µM (active) | 0.946 µM (active) | 1.42 µM (inactive) | 4.6 µM (inactive) | 0.695 µM (active) | 11.4 µM (inactive) | 0.738 µM (active) | 3.4 µM (inactive) | 1.28 µM (inactive) |
| Brc1ccc2c(-c3csc(-c4c[nH]c5cc(Br)ccc45)n3)c[nH]c2c1 | 19.5 µM (inactive) | 44 µM (inactive) | 10.2 µM (inactive) | 26.8 µM (inactive) | 43.8 µM (inactive) | 14.5 µM (inactive) | 12.4 | 5.69 µM (inactive) | 31.1 µM (inactive) | 23 µM (inactive) | 30.5 µM (inactive) | 18.9 µM (inactive) | 17.6 µM (inactive) | 9.31 µM (inactive) | 46.6 µM (inactive) | 37 µM (inactive) | 20.2 µM (inactive) | 15.8 µM (inactive) | > 65.9 µM (inactive) | 55.3 µM (inactive) |
